Laboratory results: patent US8901090B2, “Method of treating otitis externa using macrocyclic lactone compound” (Galderma S.A., priority 2010, dated 2014)

Experiment: Topical treatment of patients with acute otitis externa with ivermectin lotion (informal trials, Examples 3-6)
Format: in vivo, human
Text: The otic composition of the present invention described above is applied into the external auditory canal and on the auricle of the affected ear. The lotion, gel, or ointment can be applied with an applicator into the external auditory canal by the patient or others. Preferably, the applicator has a smooth surface, for example, a glass rod, coated with the lotion, gel, or ointment. Although cotton swab can be used, precaution should be exercised, because cotton swab is rough and it can cause irritation to the epidermis of the external auditory canal, and cotton residue left in the ear canal can cause further complication of the condition. The composition in the form of liquid suspension can be dropped or sprayed into the external auditory canal. The otic composition can be packaged for proper dosing by the patients. Moreover, the otic composition can also be integrated into or applied on an absorbent material, such as a strip of cotton fabric or medical dressing, and then the absorbent material is inserted into the external auditory canal by a physician as needed.
Operating with informed consent of individuals, individuals were treated with the otic composition and the method of the present invention for treating otitis externa, as described in Examples 3 to 7.
A person presented with acute otitis externa, symptoms including pain, tenderness, and swelling of the right ear canal. […]

ivermectin
effectiveness in treating otitis externa (otic composition containing ivermectin at a concentration as low as 0.075%): effective
time until dramatic resolution of the symptoms (summary of Examples 3 through 6, otic composition containing 0.075% of ivermectin): ≤ 24 h
